IC50 data for 19 compounds are collected here from patent publication US8623859B2, “Bradykinin B1 antagonists” (Evotec AG, priority 2008, dated 2014).

SMILES strings stand for the structures. Structures can show the parent of a compound that is named as a salt.

For the test, the target named is T1, human B1 (Homo sapiens, UniProt P46663).
T1 construct: host or cells: CHO-K1
T1 sequence (P46663 1-353): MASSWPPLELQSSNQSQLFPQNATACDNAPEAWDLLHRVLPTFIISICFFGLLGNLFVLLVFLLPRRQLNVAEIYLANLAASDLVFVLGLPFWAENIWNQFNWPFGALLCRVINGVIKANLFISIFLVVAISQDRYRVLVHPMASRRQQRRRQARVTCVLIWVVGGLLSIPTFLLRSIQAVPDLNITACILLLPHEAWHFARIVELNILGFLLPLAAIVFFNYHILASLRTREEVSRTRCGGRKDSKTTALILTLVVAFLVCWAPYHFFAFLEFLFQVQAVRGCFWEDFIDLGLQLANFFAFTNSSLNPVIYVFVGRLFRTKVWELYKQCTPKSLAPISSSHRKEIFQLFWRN
The test is described as follows: Calcium flux assay for Bradykinin B1 antagonist, CHO-K1 cell line expressing human B1. The settings on record: CHO-K1 cells expressing human B1, agonist Lys-(Des-Arg)-Bradykinin, read-out: Potency (IC50 value against human B1). Format: cell-based. A digest of the protocol: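 CHO-K1 cells expressing human B1, loaded with 5 μM Fluo-4AM (2 h, 37° C) in HEPES buffer pH 7.4 with probenecid and 0.1% BSA, were preincubated 30 min at 25° C with compound (8 concentrations, triplicate, 1% DMSO) before B1 agonist addition. Ca2+ fluorescence monitored at 538 nm; background-normalized integrated values plotted against log antagonist concentration.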

Consider `CCN1CCN(CCNC(=O)c2coc(CN(C3CC3)S(=O)(=O)c3c(C)cc(OC)cc3C)c2)CC1` [Ex 113, 5-({Cyclopropyl[(4-methoxy-2,6-dimethylphenyl)sulfonyl]amino}methyl)-N-[2-(4-ethylpiperazin-1-yl)ethyl]furan-3-carboxamide trifluoroacetate], for which the half-inhibitory concentration (IC50) fell in the range of 100 to 1000 nM. On to `COc1cc(C)c(S(=O)(=O)N(Cc2cc(C(=O)N3CCN(CCc4ccccn4)CC3)co2)C2CC2)c(C)c1` [Ex 114, N-Cyclopropyl-4-methoxy-2,6-dimethyl-N-[(4-{[4-(2-pyridin-2-ylethyl)piperazin-1-yl]carbonyl}furan-2-yl)methyl]benzenesulfonamide trifluoroacetate], for which the half-maximal inhibitory concentration (IC50) is 100 to 1000 nM.

With `COc1cc(C)c(S(=O)(=O)N(Cc2cc(C(=O)N3CCN(CCCN4CCCC4)CC3)co2)C2CC2)c(C)c1` [Ex 115, N-Cyclopropyl-4-methoxy-2,6-dimethyl-N-[(4-{[4-(3-pyrrolidin-1-ylpropyl)piperazin-1-yl]carbonyl}furan-2-yl)methyl]benzenesulfonamide trifluoroacetate], the IC50 lay within 10 to 100 nM. Consider `COc1cc(C)c(S(=O)(=O)N(Cc2cc(C(=O)N3CCCN(CCCN4CCCC4)CC3)co2)C2CC2)c(C)c1` [Ex 116, N-Cyclopropyl-4-methoxy-2,6-dimethyl-N-[(4-{[4-(3-pyrrolidin-1-ylpropyl)-1,4-diazepan-1-yl]carbonyl}furan-2-yl)methyl]benzenesulfonamide trifluoroacetate], for which the IC50 lay within 10 to 100 nM. As for `COc1cc(C)c(S(=O)(=O)N(Cc2cc(C(=O)N3CCN(CC(=O)Nc4cccnc4)CC3)co2)C2CC2)c(C)c1` [Ex 117, 2-(4-{[5-({Cyclopropyl[(4-methoxy-2,6-dimethylphenyl)sulfonyl]amino}methyl)furan-3-yl]carbonyl}piperazin-1-yl)-N-pyridin-3-ylacetamide trifluoroacetate], the half-maximal inhibitory concentration (IC50) was in the range of 100 to 1000 nM. With `COc1cc(C)c(S(=O)(=O)N(Cc2cc(C(=O)N3CCN(CCCN(C)C)CC3)co2)C2CC2)c(C)c1` [Ex 118, N-Cyclopropyl-N-{[4-({4-[3-(dimethylamino)propyl]piperazin-1-yl}carbonyl)furan-2-yl]methyl}-4-methoxy-2,6-dimethylbenzenesulfonamide trifluoroacetate], the IC50 is 10 to 100 nM. For `COc1cc(C)c(S(=O)(=O)N(Cc2cc(C(=O)N3CCC(N4CCN(C)CC4)CC3)co2)C2CC2)c(C)c1` [Ex 119, N-Cyclopropyl-4-methoxy-2,6-dimethyl-N-[(4-{[4-(4-methylpiperazin-1-yl)piperidin-1-yl]carbonyl}furan-2-yl)methyl]benzenesulfonamide trifluoroacetate], the IC50 was 100 to 1000 nM.

For `COc1cc(C)c(S(=O)(=O)N(Cc2cc(C(=O)N3CCC(CCN4CCCC4)CC3)co2)C2CC2)c(C)c1` [Ex 120, N-Cyclopropyl-4-methoxy-2,6-dimethyl-N-[(4-{[4-(2-pyrrolidin-1-ylethyl)piperidin-1-yl]carbonyl}furan-2-yl)methyl]benzenesulfonamide trifluoroacetate], the half-inhibitory concentration (IC50) was < 10 nM. Consider `CCN(Cc1cc(C(=O)N(C)Cc2ccc(CN3CCCC3)cc2)co1)S(=O)(=O)c1c(Cl)cccc1Cl` [Ex 121, 5-({[(2,6-Dichlorophenyl)sulfonyl](ethyl)amino}methyl)-N-methyl-N-[4-(pyrrolidin-1-ylmethyl)benzyl]furan-3-carboxamide trifluoroacetate], for which the IC50 is 100 to 1000 nM. On to `CCN(Cc1cc(C(=O)NCCc2ccc(C3=NCCN3)cc2)co1)S(=O)(=O)c1c(Cl)cccc1Cl` [Ex 122, 5-({[(2,6-Dichlorophenyl)sulfonyl](ethyl)amino}methyl)-N-{2-[4-(4,5-dihydro-1H-imidazol-2-yl)phenyl]ethyl}furan-3-carboxamide trifluoroacetate], for which the IC50 fell in the range of 100 to 1000 nM.

On to `CN(Cc1ccc(C2=NCCN2)cc1)C(=O)c1coc(CN(C2CC2)S(=O)(=O)c2c(Cl)cc(Br)cc2Cl)c1` [Ex 123, 5-({[(4-Bromo-2,6-dichlorophenyl)sulfonyl](cyclopropyl)amino}methyl)-N-[4-(4,5-dihydro-1H-imidazol-2-yl)benzyl]-N-methylfuran-3-carboxamide trifluoroacetate], for which the IC50 was < 10 nM. As to `CN(CCc1ccc(C2=NCCN2)cc1)C(=O)c1coc(CN(C2CC2)S(=O)(=O)c2c(Cl)cc(Br)cc2Cl)c1` [Ex 124, 5-({[(4-Bromo-2,6-dichlorophenyl)sulfonyl](cyclopropyl)amino}methyl)-N-{2-[4-(4,5-dihydro-1H-imidazol-2-yl)phenyl]ethyl}-N-methylfuran-3-carboxamide trifluoroacetate], the IC50 was < 10 nM. Turning to `O=C(c1coc(CN(C2CC2)S(=O)(=O)c2c(Cl)cc(Br)cc2Cl)c1)N1CCCC(c2ccc(CN3CCCC3)cc2)C1` (stereo not shown) [Ex 125, 4-Bromo-2,6-dichloro-N-cyclopropyl-N-{[4-({3-[4-(pyrrolidin-1-ylmethyl)phenyl]piperidin-1-yl}carbonyl)furan-2-yl]methyl}benzenesulfonamide trifluoroacetate], the IC50 lay in the range of 100 to 1000 nM. `COc1cc(C)c(S(=O)(=O)N(C)Cc2cc(C(=O)N(C)Cc3ccc(CN4CCC(O)CC4)cc3)co2)c(C)c1` [Ex 126, N-{4-[(4-Hydroxypiperidin-1-yl)methyl]benzyl}-5-({[(4-methoxy-2,6-dimethylphenyl)sulfonyl](methyl)amino}methyl)-N-methylfuran-3-carboxamide]: the IC50 lay within 10 to 100 nM.

Regarding `COc1cc(C)c(S(=O)(=O)N(C)Cc2cc(C(=O)N(C)Cc3ccc(CN4CCC(OC)CC4)cc3)co2)c(C)c1` [Ex 127, 5-({[(4-Methoxy-2,6-dimethylphenyl)sulfonyl](methyl)amino}methyl)-N-{4-[(4-methoxypiperidin-1-yl)methyl]benzyl}-N-methylfuran-3-carboxamide], the concentration for half-maximal inhibition (IC50) lay in the range of 10 to 100 nM.

Regarding `COc1cc(C)c(S(=O)(=O)N(C)Cc2cc(C(=O)N(C)Cc3ccc(CN4CC(O)C4)cc3)co2)c(C)c1` [Ex 128, N-{4-[(3-Hydroxyazetidin-1-yl)methyl]benzyl}-5-({[(4-methoxy-2,6-dimethylphenyl)sulfonyl](methyl)amino}methyl)-N-methylfuran-3-carboxamide], the 50% inhibitory concentration (IC50) was 100 to 1000 nM. In the case of `COc1cc(C)c(S(=O)(=O)N(C)Cc2cc(C(=O)N(C)Cc3ccc(CN4CCC(OC)C4)cc3)co2)c(C)c1` (stereo not shown) [Ex 129, 5-({[(4-Methoxy-2,6-dimethylphenyl)sulfonyl](methyl)amino}methyl)-N-{4-[(3-methoxypyrrolidin-1-yl)methyl]benzyl}-N-methylfuran-3-carboxamide], the IC50 lay within 100 to 1000 nM. The result for `COc1cc(C)c(S(=O)(=O)N(C)Cc2cc(C(=O)N(C)Cc3ccc(CN4CCCC(OC)C4)cc3)co2)c(C)c1` (stereo not shown) [Ex 130, 5-({[(4-Methoxy-2,6-dimethylphenyl)sulfonyl](methyl)amino}methyl)-N-{4-[(3-methoxypiperidin-1-yl)methyl]benzyl}-N-methylfuran-3-carboxamide] reads 100 to 1000 nM; that for `COc1cc(C)c(S(=O)(=O)N(C)Cc2cc(C(=O)N(C)Cc3ccc(CN4CCC(C(=O)N(C)C)C4)cc3)co2)c(C)c1` (stereo not shown) [Ex 131, 1-(4-{[{[5-({[(4-Methoxy-2,6-dimethylphenyl)sulfonyl](methyl)amino}methyl)furan-3-yl]carbonyl}(methyl)amino]methyl}benzyl)-N,N-dimethylpyrrolidine-3-carboxamide], 100 to 1000 nM.
